Earlier results as cited in patent US20240100069A1, “Methods and Compositions for Treating Amyotrophic Lateral Sclerosis” (Amylyx Pharmaceuticals, Inc., priority 2022, published 2024).

Experiments:
CYP 1A2 = molecular target: T1, CYP 1A2 (Homo sapiens, UniProt P05177); settings: at 20 times the intended clinical concentration (Cmax)
T1 sequence (P05177 1-516): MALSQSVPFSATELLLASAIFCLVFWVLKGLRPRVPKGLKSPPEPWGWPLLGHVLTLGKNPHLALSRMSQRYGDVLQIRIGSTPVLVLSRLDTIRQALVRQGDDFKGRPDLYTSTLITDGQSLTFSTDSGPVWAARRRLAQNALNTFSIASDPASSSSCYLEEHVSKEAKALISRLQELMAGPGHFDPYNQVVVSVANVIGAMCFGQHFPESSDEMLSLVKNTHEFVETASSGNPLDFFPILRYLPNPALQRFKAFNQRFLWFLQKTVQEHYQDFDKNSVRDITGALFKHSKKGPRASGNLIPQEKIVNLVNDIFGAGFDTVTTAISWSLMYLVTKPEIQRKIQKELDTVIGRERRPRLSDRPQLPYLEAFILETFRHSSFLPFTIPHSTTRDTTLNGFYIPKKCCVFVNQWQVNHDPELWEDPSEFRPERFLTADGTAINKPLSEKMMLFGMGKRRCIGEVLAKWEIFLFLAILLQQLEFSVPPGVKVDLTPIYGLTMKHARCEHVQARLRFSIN

CYP 2D6 = CYP 2D6 (Homo sapiens, UniProt P10635); settings: at 20 times the intended clinical concentration (Cmax)
CYP 2D6, sequence (P10635 whole entry): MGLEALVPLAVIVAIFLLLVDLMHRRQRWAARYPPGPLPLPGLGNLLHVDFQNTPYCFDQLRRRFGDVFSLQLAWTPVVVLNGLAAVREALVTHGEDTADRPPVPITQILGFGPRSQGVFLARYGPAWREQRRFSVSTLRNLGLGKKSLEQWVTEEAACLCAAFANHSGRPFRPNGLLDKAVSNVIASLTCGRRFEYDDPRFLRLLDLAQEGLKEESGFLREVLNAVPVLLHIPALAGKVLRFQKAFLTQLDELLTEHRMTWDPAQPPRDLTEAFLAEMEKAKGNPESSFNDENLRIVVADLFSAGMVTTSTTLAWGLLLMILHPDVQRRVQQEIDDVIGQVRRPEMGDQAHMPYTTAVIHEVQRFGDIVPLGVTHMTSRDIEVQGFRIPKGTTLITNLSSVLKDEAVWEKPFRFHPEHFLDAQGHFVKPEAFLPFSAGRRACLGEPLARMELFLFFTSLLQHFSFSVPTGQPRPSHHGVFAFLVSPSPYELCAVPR

[1] = system: G393A SODI mouse model of ALS
[2] = in vivo

Q: Which “inhibition of CYP 1A2” value (CYP 1A2) does the source give for Phenylacetylacetate here?
A: inhibitory

Q: What about the “inhibition of CYP 2D6” value (CYP 2D6) of the same molecule?
A: inhibitory

Q: For `O=C(O)CCCc1ccccc1` [Phenylbutyrate, sodium phenylbutyrate], which “survival in in vivo models” value [1] is on record?
A: increase survival

Q: Which “most common adverse reactions reported (abdominal discomfort, abdominal pain, diarrhea, nausea, pruritus, rash), frequency” value [2] does the source give for `C[C@H](CCC(=O)NCCS(=O)(=O)O)[C@H]1CC[C@H]2[C@@H]3[C@@H](O)C[C@@H]4C[C@H](O)CC[C@]4(C)[C@H]3CC[C@]12C` [TURSO, tauroursodeoxycholic acid] here?
A: ≥ 1%
